The assay deals with HCV pseudoparticles (genotype 1a HCV E1 and E2 envelope, H77C isolate). As to the kind of experiment: microbe, parasite or virus in culture. The following applies: Hepatitis C virus. It is filed as cell-based.
[1] abbreviates: Huh-7, 48 h, read-out: Activity (EC50 class), HCV pseudoparticles, Huh7 cells, luciferase 2 days after infection, average of duplicates.
Where [2] appears, read: Huh-7, 48 h, read-out: Activity (EC50 class), HCV pseudoparticle infection of Huh7 cells, luciferase 2 days after infection, EC50 expressed as class A/B.
The mark [3] stands for this setting: Huh-7, 48 h, HCV pseudoparticles (genotype 1a, H77C) in Huh7 cells, average of duplicate, luciferase 2 days after infection.
[4] abbreviates: Huh-7, read-out: Activity (EC50 class), HCV pseudoparticles (genotype 1a, H77C) in Huh7 cells, EC50 expressed as class A/B.

Where two headings read alike, the source gives them in different places.

A word on the EC50: it is the concentration that produces a half-maximal response. Consider `CC(C)(CNC(=O)C(=O)Nc1nc2cnccc2s1)CNC(=O)c1ccc(Nc2nc(NC3(c4ccc(Cl)cc4)CC3)nc(OCC(F)(F)F)n2)cc1` [Compound 3808], for which, under setting [1], the EC50 is 0.01 to 10 nM.
As to `COC(=O)[C@H](CNC(=O)C(=O)Nc1cccc(-c2noc(C)n2)c1)NC(=O)c1ccc(Nc2nc(NC3(c4ccc(Cl)cc4)CC3)nc(OCC(F)(F)F)n2)cc1` [Compound 3730], the EC50 reads like this: (Huh-7, 48 h, HCV pseudoparticles, Huh7 cells, luciferase 2 days after infection, average of duplicates) 0.6 nM; under setting [1], 0.01 to 10 nM.
On to `O=C(NCCc1ccccn1)C(=O)NCC[C@H](NC(=O)c1ccc(Nc2nc(NC3(c4ccc(Cl)cc4)CC3)nc(OCC(F)(F)F)n2)cc1)C(=O)O` [Compound 1326], for which, under setting [2], the EC50 was 0.01 to 10 nM.
As for `O=C(NCC[C@H](NC(=O)c1ccc(Nc2nc(NC3(c4ccc(Cl)cc4)CC3)nc(OCC(F)(F)F)n2)cc1)C(=O)O)C(=O)Nc1cc(F)ccc1F` [Compound 1513], the EC50 under setting [2] fell in the range of 0.01 to 10 nM.
Consider `CCOc1ccc(NC(=O)C(=O)NC[C@H](NC(=O)c2ccc(Nc3nc(NC4(c5ccc(Cl)cc5)CC4)nc(OCC(F)(F)F)n3)cc2)C(=O)OC)cc1` [Compound 3210], for which the EC50 runs as follows: under setting [3], 0.75 nM; under setting [4], 0.01 to 10 nM.
For `Cc1nnnn1-c1cc(Nc2nc(NC3(c4ccc(Cl)cc4)CC3)nc(OCC(F)(F)F)n2)ccc1C(=O)NCC(C)(C)CNC(=O)C(=O)Nc1ccc(F)cc1` [Compound 3552], under setting [4], the EC50 fell in the range of 0.01 to 10 nM.
For the compound `COCC(NC(=O)C(=O)NCC[C@H](NC(=O)c1ccc(Nc2nc(NC3(c4ccc(Cl)cc4)CC3)nc(OCC(F)(F)F)n2)cc1)C(=O)OC)C1CC1` (stereo partly shown) [Compound 1371], the EC50 under setting [2] lay in the range of 0.01 to 10 nM.
As for `Cc1nc(-c2cccc(NC(=O)C(=O)NCC[C@H](NC(=O)c3ccc(Nc4nc(NC5(c6ccc(Cl)cc6)CC5)nc(OCC(F)(F)F)n4)cc3)C(=O)O)c2)no1` [Compound 3654], the EC50 under setting [1] lay in the range of 0.01 to 10 nM.
As for `COC(=O)[C@H](CNC(=O)C(=O)Nc1ccc(O)nc1)NC(=O)c1ccc(Nc2nc(NC3(c4ccc(Cl)cc4)CC3)nc(OCC(F)(F)F)n2)cc1` [Compound 3722], under setting [1], the EC50 was 0.01 to 10 nM.
Turning to `CCc1nccn1CC1(CNC(=O)C(=O)NCC[C@@H](NC(=O)c2ccc(Nc3nc(NC4(c5ccc(Cl)cc5)CC4)nc(OCC(F)(F)F)n3)cc2)C(=O)OC)CC1` [Compound 1386], the EC50 reads like this: (Huh-7, 48 h, HCV pseudoparticle infection of Huh7 cells, luciferase 2 days after infection, average of duplicates) 2.76 nM; under setting [2], 0.01 to 10 nM.
For the compound `CC(C)(CNC(=O)C(=O)NO)CNC(=O)c1ccc(Nc2nc(NC3(c4ccc(Cl)cc4)CC3)nc(OCC(F)(F)F)n2)cc1` [Compound 3074], the EC50 was 0.054 nM under setting [3] and 0.01 to 10 nM under setting [4].
On to `COC(=O)[C@H](CNC(=O)C(=O)Nc1ccc(Cn2cccn2)cc1)NC(=O)c1ccc(Nc2nc(NC3(c4ccc(Cl)cc4)CC3)nc(OCC(F)(F)F)n2)cc1` [Compound 3195], for which, under setting [4], the EC50 fell in the range of 0.01 to 10 nM.
As for `O=C(NCC[C@H](NC(=O)c1ccc(Nc2nc(NC3(c4ccc(Cl)cc4)CC3)nc(OCC(F)(F)F)n2)cc1)C(=O)O)C(=O)N[C@H]1C[C@H]1c1ccccc1` [Compound 1338], the EC50 under setting [2] lay in the range of 0.01 to 10 nM.
With `O=C(NC[C@H](NC(=O)c1ccc(Nc2nc(NC3(c4ccc(Cl)cc4)CC3)nc(OCC(F)(F)F)n2)cc1)C(=O)O)C(=O)Nc1cccc(F)c1` [Compound 1357], the EC50 under setting [2] was 0.01 to 10 nM.
In the case of `COc1cccc2sc(NC(=O)C(=O)NCC(C)(C)CNC(=O)c3ccc(Nc4nc(NC5(c6ccc(Cl)cc6)CC5)nc(OCC(F)(F)F)n4)cc3F)nc12` [Compound 3814], the EC50 under setting [1] was in the range of 0.01 to 10 nM.
Regarding `CCC(C)CNC(=O)C(=O)NC[C@@H](NC(=O)c1ccc(Nc2nc(NC3(c4ccc(Cl)cc4)CC3)nc(OCC(F)(F)F)n2)cc1)C(=O)O` (stereo partly shown) [Compound 1044], the EC50 under setting [2] was 0.01 to 10 nM.
With `COC(=O)[C@H](CCNC(=O)C(=O)Nc1cc[nH]n1)NC(=O)c1ccc(Nc2nc(NC3(c4ccc(Cl)cc4)CC3)nc(OCC(F)(F)F)n2)cc1` [Compound 1223], the EC50 under setting [2] was 0.01 to 10 nM.
Regarding `COC(=O)[C@H](CCNC(=O)C(=O)Nc1ccc(C)cc1)NC(=O)c1ccc(Nc2nc(NC3(c4ccc(Cl)cc4)CC3)nc(OCC(F)(F)F)n2)cc1` [Compound 3114], the EC50 runs as follows: under setting [3], 0.084 nM; under setting [4], 0.01 to 10 nM.
In the case of `Cc1ccc(NC(=O)C(=O)NCC(C)(C)CNC(=O)c2ccc(Nc3nc(NC4(c5ccc(Cl)cc5)CC4)nc(OCC(F)(F)F)n3)cc2)c(C#N)c1` [Compound 3454], the EC50 under setting [4] lay within 0.01 to 10 nM.
In the case of `COC(=O)[C@H](CNC(=O)C(=O)Nc1ccc(OC(F)(F)F)cc1)NC(=O)c1ccc(Nc2nc(NC3(c4ccc(Cl)cc4)CC3)nc(OCC(F)(F)F)n2)cc1` [Compound 3214], the EC50 under setting [4] lay in the range of 0.01 to 10 nM.
In the case of `O=C(NCC[C@H](NC(=O)c1ccc(Nc2nc(NC3(c4ccc(Cl)cc4)CC3)nc(OCC(F)(F)F)n2)cc1)C(=O)O)C(=O)Nc1cccc(S(=O)(=O)N2CCCCC2)c1` [Compound 3641], under setting [1], the EC50 was in the range of 0.01 to 10 nM.
In the case of `COC(=O)[C@H](CCNC(=O)C(=O)NCc1cccc(F)c1F)NC(=O)c1ccc(Nc2nc(NC3(c4ccc(Cl)cc4)CC3)nc(OCC(F)(F)F)n2)cc1` [Compound 1160], under setting [2], the EC50 was 0.01 to 10 nM.
On to `O=C(NC/C(=N/C(=O)c1ccc(Nc2nc(NC3(c4ccc(Cl)cc4)CC3)nc(OCC(F)(F)F)n2)cc1)C(=O)O)C(=O)Nc1ccc(-n2cccn2)cc1` [Compound 3173], for which, under setting [4], the half-maximal effective concentration (EC50) lay within 0.01 to 10 nM.
On to `O=C(NC/C(=N/C(=O)c1ccc(Nc2nc(NC3(c4ccc(Cl)cc4)CC3)nc(OCC(F)(F)F)n2)cc1)C(=O)O)C(=O)Nc1ccc(-n2cnc(O)c2O)cc1` [Compound 3163], for which the EC50 under setting [4] was 0.01 to 10 nM.
Take `COC(=O)[C@H](CCNC(=O)C(=O)Nc1ccc(C(=O)N2CCOCC2)cc1)NC(=O)c1ccc(Nc2nc(NC3(c4ccc(Cl)cc4)CC3)nc(OCC(F)(F)F)n2)cc1` [Compound 3128]: the EC50 under setting [4] is 0.01 to 10 nM.
With `CC(=O)Nc1ccc(NC(=O)C(=O)NCC[C@H](NC(=O)c2ccc(Nc3nc(NC4(c5ccc(Cl)cc5)CC4)nc(OCC(F)(F)F)n3)cc2)C(=O)O)cn1` [Compound 3631], the EC50 under setting [1] was 0.01 to 10 nM.
Consider `Cc1ccc(NC(=O)C(=O)NCC(C)(C)CNC(=O)c2ccc(Nc3nc(NC4(c5ccc(Cl)cc5)CC4)nc(OCc4ccccc4Cl)n3)cc2)cc1` [Compound 3850], for which, under setting [1], the EC50 is 0.01 to 10 nM.
As to `CC(C)(CNC(=O)C(=O)NCC1(CN2CCCC2)CC1)CNC(=O)c1ccc(Nc2nc(NC3(c4ccc(Cl)cc4)CC3)nc(OCC(F)(F)F)n2)cc1` [Compound 1036], the EC50 under setting [2] is 0.01 to 10 nM.
`COC(=O)[C@H](CCNC(=O)C(=O)NCc1ccc(OC)cc1OC)NC(=O)c1ccc(Nc2nc(NC3(c4ccc(Cl)cc4)CC3)nc(OCC(F)(F)F)n2)cc1` [Compound 1147]: the EC50 under setting [2] fell in the range of 0.01 to 10 nM.
Take `COC(=O)/C(CCNC(=O)C(=O)Nc1ccc(OCCN2CCCCC2)nc1)=N\C(=O)c1ccc(Nc2nc(NC3(c4ccc(Cl)cc4)CC3)nc(OCC(F)(F)F)n2)cc1` [Compound 3598]: the EC50 under setting [4] is 0.01 to 10 nM.
As for `CC(C)(CNC(=O)C(=O)Nc1cn[nH]c1)CNC(=O)c1ccc(Nc2nc(NC3(c4ccc(Cl)cc4)CC3)nc(OCC(F)(F)F)n2)cc1` [Compound 3033], the EC50 under setting [4] is 0.01 to 10 nM.
With `COC(=O)[C@H](CCNC(=O)C(=O)Nc1ccc(-n2cncn2)cc1)NC(=O)c1ccc(Nc2nc(NC3(c4ccc(Cl)cc4)CC3)nc(OCC(F)(F)F)n2)cc1` [Compound 3130], under setting [4], the EC50 lay in the range of 0.01 to 10 nM.
`O=C(NC[C@H](NC(=O)c1ccc(Nc2nc(NC3(c4ccc(Cl)cc4)CC3)nc(OCC(F)(F)F)n2)cc1)C(=O)O)C(=O)Nc1ccc(Cn2cccc2)cc1` [Compound 3280]: under setting [4], the EC50 lay within 0.01 to 10 nM.
As for `COC(=O)[C@H](CNC(=O)C(=O)NC1CCCCCCC1)NC(=O)c1ccc(Nc2nc(NC3(c4ccc(Cl)cc4)CC3)nc(OCC(F)(F)F)n2)cc1` [Compound 1068], the EC50 under setting [2] fell in the range of 0.01 to 10 nM.
With `COc1cc(F)ccc1NC(=O)C(=O)NCC(C)(C)CNC(=O)c1ccc(Nc2nc(NC3(c4ccc(Cl)cc4)CC3)nc(OCC(F)(F)F)n2)cc1` [Compound 3075], the EC50 under setting [4] is 0.01 to 10 nM.
With `Cc1cc(NC(=O)C(=O)NCC(C)(C)CNC(=O)c2ccc(Nc3nc(NC4(c5ccc(Cl)cc5)CC4)nc(OCC(F)(F)F)n3)cc2)sn1` [Compound 3010], the EC50 was 0.014 nM under setting [3] and 0.01 to 10 nM under setting [4].
In the case of `COC(=O)[C@H](CCNC(=O)C(=O)Nc1cccc(-c2nnnn2C)c1)NC(=O)c1ccc(Nc2nc(NC3(c4ccc(Cl)cc4)CC3)nc(OCC(F)(F)F)n2)cc1` [Compound 3607], the EC50 under setting [1] was in the range of 0.01 to 10 nM.
In the case of `CC(C)(CNC(=O)C(=O)Nc1cccc(Cl)c1)CNC(=O)c1ccc(Nc2nc(NC3(c4ccc(Cl)cc4)CC3)nc(OCC(F)(F)F)n2)cc1` [Compound 1561], the EC50 under setting [2] fell in the range of 0.01 to 10 nM.
Turning to `COC(=O)[C@@H](CCNC(=O)C(=O)NCC1(Cn2nc(C)cc2C)CC1)NC(=O)c1ccc(Nc2nc(NC3(c4ccc(Cl)cc4)CC3)nc(OCC(F)(F)F)n2)cc1` [Compound 1383], the EC50 under setting [2] lay in the range of 0.01 to 10 nM.
As to `CCN(CC)CCOc1cccc(NC(=O)C(=O)NC[C@H](NC(=O)c2ccc(Nc3nc(NC4(c5ccc(Cl)cc5)CC4)nc(OCC(F)(F)F)n3)cc2)C(=O)Cl)c1` [Compound 3788], the EC50 under setting [1] is 0.01 to 10 nM.
For `Cc1ccc(NC(=O)C(=O)NCC(C)(C)CNC(=O)c2ccc(Nc3nc(NC4(c5ccc(Cl)cc5)CC4)nc(OCC(F)(F)F)n3)cc2)c(C)n1` [Compound 3073], under setting [4], the EC50 is 0.01 to 10 nM.
Regarding `CN(C)c1ccc(NC(=O)C(=O)NCC(C)(C)CNC(=O)c2ccc(Nc3nc(NC4(c5ccc(Cl)cc5)CC4)nc(OCC(F)(F)F)n3)cc2)cc1` [Compound 1602], under setting [2], the 50% effective concentration (EC50) was 0.01 to 10 nM.
Take `O=C(Nc1cc(F)cc(F)c1)C(=O)N[C@H](CCNC(=O)c1ccc(Nc2nc(NC3(c4ccc(Cl)cc4)CC3)nc(OCC(F)(F)F)n2)cc1)C(=O)O` [Compound 3493]: the EC50 under setting [4] lay within 0.01 to 10 nM.
